Reference: patent US20230285227A1, “INGESTIBLE CAPSULES” (Massachusetts Institute of Technology, priority 2022, published 2023)
Where “and” joins values, the source holds several entries; their conditions need not be identical. Identical values can stand only once.

Experiments:
[1] = vancomycin permeability in isolated small intestine sections of anesthetized swine, mesenteric venous blood; settings: 100 mg vancomycin, capsules vs sham control pills, p<0.001
Description: In anesthetized swine, sections of the small intestine were isolated to serve as independent testing sites while controlling for animal-specific properties such as hydration status, peristaltic rate, blood pressure, and perfusion.

[2] = Franz cell vancomycin permeability, capsule vs direct dilution in donor well; settings: 25 tissue samples from n=5 animals, control = direct dilution in donor well, p<0.05
Protocol: Both helical and smooth exteriors were assessed. […] Given inter-animal variability of tissue properties, a ratio of permeability induced by the capsule to the control condition was calculated using a matched-pair format per animal.

[3] = FITC-dextran uptake with capsule vs direct application
Description: To assay the capability of the capsule to assist in the delivery of larger molecules, fluorescein isothiocyanate-(FITC) dextran having various molecular weights were delivered using the capsule, at various motor frequencies, and compared to direct application (controls).

[4] = oral insulin, background; cited from earlier work
[5] = oral insulin delivery via capsule or endoscopic spray in the small intestine, blood glucose and insulin monitoring; format: in vivo, swine
Protocol: Blood glucose and insulin concentrations were monitored for a 75-minute period with the drug delivery starting at 15 minutes.

## CN[C@H](CC(C)C)C(=O)N[C@H]1C(=O)N[C@@H](CC(N)=O)C(=O)N[C@H]2C(=O)N[C@H]3C(=O)N[C@H](C(=O)N[C@H](C(=O)O)c4cc(O)cc(O)c4-c4cc3ccc4O)[C@H](O)c3ccc(c(Cl)c3)Oc3cc2cc(c3O[C@@H]2O[C@H](CO)[C@@H](O)[C@H](O)[C@H]2O[C@H]2C[C@](C)(N)[C@H](O)[C@H](C)O2)Oc2ccc(cc2Cl)[C@H]1O [vancomycin]
[1]
  tissue permeability with capsules relative to control: ≥ 20 times the control
[2]
  increase of vancomycin drug permeability with capsule delivery compared to controls: over 10 fold

## fluorescein isothiocyanate-(FITC) dextran
[3]; molecular weights 40 kDa and 70 kDa
  uptake increase at 40 kDa and 70 kDa: greatest increases
[3]; molecular weights as high as 150 kDa, various motor frequencies
  uptake with the capsule compared to direct application: significantly increase uptake

## insulin
[4]
  oral bioavailability: less than 2.5%
[5]; 100 units insulin by endoscopic spray in the small intestine (control), n=5
  variance of blood glucose from baseline: 16.6 ± 17.3 mg/dL
[5]; 100 units insulin via the capsule, n=7 animals, 75-minute monitoring
  average blood glucose reduction: 55.54 ± 16.1 mg/dL
[5]; capsule delivery of insulin
  uptake dynamics compared to subcutaneous or IV injection: more gradual uptake
[5]; insulin via the capsule
  time to changes in plasma glucose levels: ≤ 15 min
[5]; insulin via the capsule, ensued at 60 minutes
  animals with hypoglycemia (blood glucose<20 mg/dL) necessitating dextrose infusion: three and 3 out of 7
